Experimental data published in ChEMBL document CHEMBL4482321, “Compounds and methods for treatment of cancer by inhibiting atg4b and blocking autophagy” (2017).
The source made the active and inactive calls. The calls are words filed in the database; no cut-off is given here.

How the values were obtained:
[1] = target: T1, Cysteine protease ATG4B (Homo sapiens) (UniProt Q9Y4P1); test: Inhibition of ATG4B (unknown origin) at 100 uM incubated up to 1 hr in presence of fluorescent protein substrate by FRET-based-LC3 cleavage assay relative to control
T1 sequence (whole entry): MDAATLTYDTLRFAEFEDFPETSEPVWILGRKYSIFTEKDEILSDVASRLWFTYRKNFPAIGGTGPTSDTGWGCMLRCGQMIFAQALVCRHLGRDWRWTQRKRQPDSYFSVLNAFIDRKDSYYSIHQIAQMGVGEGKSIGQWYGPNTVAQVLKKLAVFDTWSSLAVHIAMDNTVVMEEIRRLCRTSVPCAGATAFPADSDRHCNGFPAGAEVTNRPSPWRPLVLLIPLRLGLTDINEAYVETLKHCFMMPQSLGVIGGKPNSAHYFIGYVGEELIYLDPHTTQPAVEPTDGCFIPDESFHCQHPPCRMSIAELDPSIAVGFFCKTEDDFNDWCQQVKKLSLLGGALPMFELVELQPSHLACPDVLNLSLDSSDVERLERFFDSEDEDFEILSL

[2] = target: T1, Cysteine protease ATG4B (Homo sapiens); test: Inhibition of ATG4B (unknown origin) at 1.6 uM incubated up to 1 hr in presence of fluorescent protein substrate by FRET-based-LC3 cleavage assay relative to control
Cysteine protease ATG4B = target: T2, Cysteine protease ATG4B (Homo sapiens, UniProt Q9Y4P1); test: Inhibition of ATG4B (unknown origin) incubated up to 1 hr in presence of fluorescent protein substrate by FRET-based-LC3 cleavage assay
T2 sequence (Q9Y4P1 whole entry): T1 sequence (whole entry)

MDA-MB-231 [3] = test: Cytotoxicity against human MDA-MB-231 cells assessed as induction of cell killing incubated for 72 hrs by crystal violet staining based assay; assay type: functional; conditions: MDA-MB-231, 72 h
[4] = Cytotoxicity against human MDA-MB-231-R8 cells assessed as induction of cell killing incubated for 72 hrs by crystal violet staining based assay; assay type: functional
SUM149PT = test: Cytotoxicity against human SUM149PT cells assessed as induction of cell killing incubated for 72 hrs by crystal violet staining based assay; assay type: functional
[5] = Cytotoxicity against human SUM149PT-R75 cells assessed as induction of cell killing incubated for 72 hrs by crystal violet staining based assay; assay type: functional
K562 [6] = test: Synergistic cytotoxicity against human K562 cells assessed as reduction in cell viability at 5 to 10 uM in presence of 0.5 uM imatinib incubated for 72 hrs by trypan blue staining based assay relative to compound alone; assay type: functional
K562 [7] = test: Synergistic induction of apoptosis in human K562 cells assessed as reduction in cell viability at 5 to 10 uM in presence of 0.5 uM imatinib incubated for 72 hrs by Annexin V-APC and propidium iodide staining based flow cytometry relative to compound alone; assay type: functional
BV-173 = test: Cytotoxicity against human BV173 cells assessed as reduction in colony forming cells at 5 to 10 uM in presence of 0.25 to 0.5 uM imatinib incubated for 2 weeks; assay type: functional, cell-based
Homo sapiens [8] = species on record: Homo sapiens; test: Cytotoxicity against human CD34+ CML cells obtained from IM-nonresponding patient assessed as reduction in colony forming cells at 10 uM in presence of 5 imatinib incubated for 12 to 14 days; assay type: functional, cell-based
Homo sapiens [9] = species on record: Homo sapiens; test: Cytotoxicity against human CD34+ CML cells obtained from IM-nonresponding patient assessed as reduction in colony forming cells at 10 uM in presence of 150 nM DA incubated for 12 to 14 days; assay type: functional, cell-based
Bone marrow cell = test: Cytotoxicity against human CD34+ normal bone marrow cells […] assessed as reduction in colony forming cells up to 10 uM incubated for 12 to 14 days; assay type: cell-based
MDA-MB-231 [10] = test: Inhibition of autophagic flux in bafilomycin A-treated human MDA-MB-231 cells assessed as increase in LC3B-II levels at 50 uM by Western blot analysis; assay type: functional, cell-based
MDA-MB-231 [11] = test: Inhibition of autophagic flux in wortmannin-treated human MDA-MB-231 cells assessed as increase in LC3B-II levels at 50 uM by Western blot analysis; assay type: functional, cell-based
MDA-MB-231 [12] = test: Inhibition of autophagic flux in bafilomycin A-treated human MDA-MB-231 cells assessed as increase in p62 levels at 50 uM by Western blot analysis; assay type: functional, cell-based
MDA-MB-231 [13] = test: Inhibition of autophagic flux in wortmannin-treated human MDA-MB-231 cells assessed as increase in p62 levels at 50 uM by Western blot analysis; assay type: functional, cell-based

SMILES	inhibition [1] [%]	inhibition [2] [%]	IC50 (Cysteine protease ATG4B) [µM]	IC50 (MDA-MB-231 [3]) [µM]	IC50 [4] [µM]	IC50 (SUM149PT) [µM]	IC50 [5] [µM]	other results
O=C(O)CCC(NC(=O)Nc1ncc([N+](=O)[O-])s1)C(=O)O (stereo not drawn)	27	10						
O=C(Nc1ncc([N+](=O)[O-])s1)NC(Cc1ccccc1)C(=O)O (stereo not drawn)	17	0						
O=C(NCc1ccccc1)Nc1ncc([N+](=O)[O-])s1			1.7	42.9 to 59.1	23.3 to 30.8	25.6 to 33.2	24.5 to 34.1	Activity (K562 [6]): Active; Activity (K562 [7]): Active; Activity (BV-173): Active; Activity (Homo sapiens [8]): Active; Activity (Homo sapiens [9]): Active; Activity (Bone marrow cell): Non-Toxic; Activity (MDA-MB-231 [10]): Active; Activity (MDA-MB-231 [11]): Active; Activity (MDA-MB-231 [12]): Active; Activity (MDA-MB-231 [13]): Active
COc1ccc(CNC(=O)Nc2ncc([N+](=O)[O-])s2)cc1			1.6	17.6 to 23.4	5.92 to 9.09	15.2 to 22.6	26 to 35.1	
O=C(Nc1ccccn1)Nc1ncc([N+](=O)[O-])s1	3	0						
O=C(Nc1ccccc1)Nc1ncc([N+](=O)[O-])s1	21	17						
